Patent US20260158056A1, “USE OF LOW MOLECULAR WEIGHT HYALURONIC ACID FOR THE TREATMENT OF LUNG MUCOSAL INFLAMMATION” (INSTITUT NATIONAL DE LA SANTÉ ET DE LA RECHERCHE MÉDICALE, priority 2021, published 2026)

System: IL-8 secreted by F508del/F508del CF human airway epithelial cells
Experiment: IL-8 ELISA, CF airway epithelial cells cultured at the air-liquid interface (ALI), treatment during regeneration and differentiation
Format: cell-based
Procedure: FIG. 1: Measurement by ELISA assay of the pro-inflammatory chemokine IL-8 secreted by F508del/F508del CF human airway epithelial cells cultured at the air-liquid interface (ALI). Airway epithelial cells were seeded in bi-compartmental chambers and cultured in liquid-liquid condition until confluence was reached. At confluence, culture medium from the upper chamber was removed to create an air-liquid interface (ALI) that will favor epithelial cell differentiation. From the ALI creation, the different treatments (15-45 kDa sodium-hyaluronic acid (HA-Na 15-45 kDa) (ARD—Pomacle—France—as prepared according to WO2004050187), 15-30 kDa sodium-hyaluronic acid (HA-Na 15-30 kDa) (Sigma Aldrich) or 30-50 kDa sodium-hyaluronic acid (HA-Na 30-50 kDa) (Sigma Aldrich) were added at 1 mg/mL to the culture medium in the basal chamber. The culture medium was renewed three times a week. At ALI day 15, the culture medium was replaced by fresh medium without any treatment. After a 4 h-period, this culture medium was collected and the IL-8 content was determined by ELISA assay. n=5 different F508del/F508del CF patients. p<0.001 (***); p<0.01 (**); p<0.05 (*). ns: non-significant.
FIG. 4: Measurement by ELISA assay of the pro-inflammatory chemokine IL-8 secreted by F508del/F508del CF human airway epithelial cells cultured at the air-liquid interface (ALI). Airway epithelial cells were seeded in bi-compartmental chambers and cultured in liquid-liquid condition until confluence was reached. At confluence, culture medium from the upper chamber was removed to create an air-liquid interface (ALI) that will favor epithelial cell differentiation. From the ALI creation, the different treatments (15-45 kDa sodium-hyaluronic acid (HA-Na 15-45 kDa) (ARD—Pomacle—France—as prepared according to WO2004050187), 15-45 kDa calcium-hyaluronic acid (HA-Ca 15-45 kDa; ARD), or 15-45 kDa potassium-hyaluronic acid (HA-K 15-45 kDa; ARD) were added at 1 mg/mL to the culture medium in the basal chamber. The culture medium was renewed three times a week. At ALI day 15, the culture medium was replaced by fresh medium without any treatment. After a 4 h-period, this culture medium was collected and the IL-8 content was determined by ELISA assay. n=4 different F508del/F508del CF patients. p<0.001 (***); p<0.01 (**); p<0.05 (*). ns: Non-significant.
FIG. 7: Measurement by ELISA assay of the pro-inflammatory chemokine IL-8 secreted by F508del/F508del CF human airway epithelial cells cultured at the air-liquid interface (ALI). Airway epithelial cells were seeded in bi-compartmental chambers and cultured in liquid-liquid condition until confluence was reached. At confluence, culture medium from the upper chamber was removed to create an air-liquid interface (ALI) that will favor epithelial cell differentiation. From the ALI creation, 15-45 kDa sodium-hyaluronic acid (HA-Na 15-45 kDa) (ARD—Pomacle—France—as prepared according to WO2004050187) was added at 0.1 mg/mL, 0.5 mg/mL, 1 mg/mL and 2 mg/mL to the culture medium in the basal chamber. The culture medium was renewed three times a week. At ALI day 15, the culture medium was replaced by fresh medium without any treatment. After a 4 h-period, this culture medium was collected and the IL-8 content was determined by ELISA assay. n=3 different F508del/F508del CF patients. p<0.001 (***); p<0.01 (**); p<0.05 (*). ns: non-significant.

[1] = FIG. 1, 1 mg/mL from ALI creation, ALI day 15, vs control condition, n=5 CF patients
[2] = FIG. 4, 1 mg/mL from ALI creation, ALI day 15, vs control condition, n=4 CF patients

Substance | decrease in IL-8 secretion [1] | decrease in IL-8 secretion [2] | decrease in IL-8 secretion (FIG. 7, 0.1 mg/mL, ALI day 15, n=3 CF patients) | decrease in IL-8 secretion (FIG. 7, 0.5 mg/mL, ALI day 15, n=3 CF patients) | decrease in IL-8 secretion (FIG. 7, 1 mg/mL, ALI day 15, n=3 CF patients) | decrease in IL-8 secretion (FIG. 7, 2 mg/mL, ALI day 15, n=3 CF patients)
15-30 kDa sodium-hyaluronic acid [HA-Na 15-30 kDa] | 57% |  |  |  |  | 
15-45 kDa calcium-hyaluronic acid [HA-Ca 15-45 kDa] |  | 59.25% |  |  |  | 
15-45 kDa sodium-hyaluronic acid [HA-Na 15-45 kDa] | 52% | 55.5% | does not have anymore effect | 47.3% | 62% | 65%
30-50 kDa sodium-hyaluronic acid [HA-Na 30-50 kDa] | 67.2% |  |  |  |  | 
